According to ChEMBL document CHEMBL5244273, “Tuberculosis: An Overview of the Immunogenic Response, Disease Progression, and Medicinal Chemistry Efforts in the Last Decade toward the Development of Potential Drugs for Extensively Drug-Resistant Tuberculosis Strains” (J Med Chem, 2021):
≈ marks a conversion by molar mass, not a printed value.

Tested on: Mycobacterium tuberculosis
Assay: Antimycobacterial activity against Mycobacterium tuberculosis H37Rv
Format: functional

Structure (SMILES)	MIC	MIC90	MIC99
CCOC(=O)c1c(NC(=O)c2c(F)c(F)c(F)c(F)c2F)sc2c1CCCCC2	1.9 µg/mL (≈ 4.38 µM)		
CC(=O)N1/C(=C/c2cccc(-c3ccsc3)c2)C(=O)c2ccccc21		3.19 µM (≈ 1.1 µg/mL)	3.34 µM (≈ 1.15 µg/mL)
CC(=O)N1/C(=C/c2cccc(-c3ccc(OC(F)(F)F)cc3)c2)C(=O)c2ccccc21		> 20 µM	> 20 µM
CC(=O)N1/C(=C/c2ccc(-c3ccsc3)cc2)C(=O)c2ccccc21		0.336 µM (≈ 0.116 µg/mL)	0.6 µM (≈ 0.207 µg/mL)
CC(=O)N1N=C(c2ccc3oc(-c4ccccn4)nc3c2)CC1c1cccs1 (stereo not drawn)	25 µg/mL (≈ 64.4 µM)		
COc1cc(-c2nc3cc(C4=NN(C(C)=O)C(c5cccs5)C4)ccc3o2)cc(OC)c1OC (stereo not drawn)	25 µg/mL (≈ 52.4 µM)		
COC(=O)c1c(NC(=O)c2c(F)c(F)c(F)c(F)c2F)sc(-c2ccc(Cl)cc2)c1C(=O)OC	3.5 µg/mL (≈ 6.73 µM)		
O=[N+]([O-])c1ccc(F)c(-c2nnc(S)o2)c1	> 25 µg/mL		
COC(=O)c1sc(NC(=O)c2c(F)c(F)c(F)c(F)c2F)c(C(=O)ON)c1C	4.9 µg/mL (≈ 11.5 µM)		
Cc1ccc(-c2nnc(S)o2)cc1	9.6 µg/mL (≈ 49.9 µM)		
CC(=O)Nc1nc2cc(C3=NN(C(C)=O)C(c4cccs4)C3)ccc2o1 (stereo not drawn)	25 µg/mL (≈ 67.9 µM)		
CCOC(=O)c1c(NC(=O)c2c(F)c(F)c(F)c(F)c2F)sc(C(N)=O)c1C	0.5 µg/mL (≈ 1.18 µM)		
CC(=O)N1/C(=C/c2cccc(-c3cnn(C)c3)c2)C(=O)c2ccccc21		4.93 µM (≈ 1.69 µg/mL)	5.61 µM (≈ 1.93 µg/mL)
CCOC(=O)c1sc(NC(=O)c2c(F)c(F)c(F)c(F)c2F)c(C(=O)OCC)c1C	7.1 µg/mL (≈ 15.7 µM)		
Oc1ccc(-c2nnc(S)[nH]2)cc1O	10.5 µg/mL (≈ 50.2 µM)		
Sc1nnc(-c2ccccc2I)o1	15.2 µg/mL (≈ 50 µM)		
COc1cccc(-c2nc3cc(C4=NN(C(C)=O)C(c5cccs5)C4)ccc3o2)c1 (stereo not drawn)	25 µg/mL (≈ 59.9 µM)		
O=[N+]([O-])c1ccc([N+](=O)[O-])c(-c2nnc(S)o2)c1	6.7 µg/mL (≈ 25 µM)		
NOC(=O)c1c(NC(=O)c2c(F)c(F)c(F)c(F)c2F)sc2c1CCCCC2	15.3 µg/mL (≈ 36.4 µM)		
NC(=O)N1N=C(c2ccc3oc(S)nc3c2)CC1c1cccs1 (stereo not drawn)	12.5 µg/mL (≈ 36.3 µM)		
COc1ccc(-c2nc3cc(C4=NN(C(C)=O)C(c5cccs5)C4)ccc3o2)cc1 (stereo not drawn)	12.5 µg/mL (≈ 29.9 µM)		
CC(=O)N1N=C(c2ccc3oc(-c4ccncc4)nc3c2)CC1c1cccs1 (stereo not drawn)	25 µg/mL (≈ 64.4 µM)		
CC(=O)N1/C(=C/c2ccc(-c3cnn(C)c3)cc2)C(=O)c2ccccc21		3.16 µM (≈ 1.09 µg/mL)	3.66 µM (≈ 1.26 µg/mL)
FC(F)(F)c1ccc(-c2nnc(S)o2)cc1	> 25 µg/mL		

Tested on: Mycobacterium tuberculosis
Assay: Antimycobacterial activity against Mycobacterium tuberculosis H37Rv assessed as inhibition of bacterial growth by resazurin dye based fluorescence analysis
Format: functional

Structure (SMILES)	MIC
O=S(=O)(NCCO)c1ccc(-c2cn(Cc3ccncc3)nn2)cc1	0.1 µM (≈ 0.0359 µg/mL)
COc1cc(-c2nnn(Cc3ccc(F)cc3)n2)ccc1S(=O)(=O)NCC(N)=O	0.1 µM (≈ 0.042 µg/mL)
COc1ccc(Cn2nnc(-c3ccc(S(=O)(=O)NCCO)cc3)n2)nc1	0.1 µM (≈ 0.039 µg/mL)
C[C@@H](O)CNS(=O)(=O)c1ccc(-c2cn(Cc3ccc(F)cc3)nn2)cc1	0.1 µM (≈ 0.039 µg/mL)
NC(=O)CNS(=O)(=O)c1ccc(-c2nnn(Cc3ccc(F)cc3)n2)cc1Cl	0.1 µM (≈ 0.0425 µg/mL)
N#Cc1ccc(Cn2nnc(-c3ccc(S(=O)(=O)NCCO)cc3)n2)cc1	0.1 µM (≈ 0.0384 µg/mL)
Cc1cc(-c2nnn(Cc3ccc(F)cn3)n2)ccc1S(=O)(=O)NCCO	0.1 µM (≈ 0.0392 µg/mL)
COc1ccc(Cn2nnc(-c3ccc(S(=O)(=O)NC[C@@H](C)O)cc3)n2)cc1	0.1 µM (≈ 0.0403 µg/mL)
O=S(=O)(NCCO)c1ccc(-c2nnn(Cc3ccc(F)cn3)n2)c(F)c1F	0.1 µM (≈ 0.0414 µg/mL)
O=S(=O)(NCCO)c1ccc(-c2nnn(CC3CCCOC3)n2)cc1 (stereo not drawn)	0.1 µM (≈ 0.0367 µg/mL)
COc1ccc(Cn2nnc(-c3ccc(S(=O)(=O)NC[C@@H](C)O)cc3)n2)nc1	0.1 µM (≈ 0.0404 µg/mL)
O=S(=O)(NCCO)c1ccc(-c2nnn(Cc3ccc(F)cn3)n2)cc1F	0.1 µM (≈ 0.0396 µg/mL)
COc1ccc(Cn2nnc(-c3ccc(S(=O)(=O)NCCO)cc3)n2)cc1F	0.1 µM (≈ 0.0407 µg/mL)
N#CCNS(=O)(=O)c1ccc(-c2nnn(CC3CCCCO3)n2)cc1 (stereo not drawn)	0.1 µM (≈ 0.0362 µg/mL)
N#CCNS(=O)(=O)c1ccc(-c2cn(Cc3ccc(F)cn3)nn2)cc1	0.1 µM (≈ 0.0372 µg/mL)
Cc1cc(Cn2nnc(-c3ccc(S(=O)(=O)NCCO)cc3)n2)ccn1	0.1 µM (≈ 0.0374 µg/mL)
O=S(=O)(NCCO)c1ccc(-c2nnn(Cc3ccc(F)cc3)n2)cc1	0.1 µM (≈ 0.0377 µg/mL)
O=S(=O)(NCCO)c1ccc(-c2nnn(Cc3cccnc3)n2)cc1	0.1 µM (≈ 0.036 µg/mL)
Cc1nccc(Cn2nnc(-c3ccc(S(=O)(=O)NCCO)cc3)n2)n1	0.1 µM (≈ 0.0375 µg/mL)
Cc1ccc(Cn2cc(-c3ccc(S(=O)(=O)NCCO)cc3)nn2)nc1	0.1 µM (≈ 0.0373 µg/mL)
COc1cc(-c2nnn(Cc3ccc(C#N)cc3)n2)ccc1S(=O)(=O)NCC(N)=O	0.1 µM (≈ 0.0427 µg/mL)
O=S(=O)(NCCO)c1ccc(-c2nnn(Cc3ccncc3)n2)cc1	0.1 µM (≈ 0.036 µg/mL)
Cc1cc(S(=O)(=O)NCCO)c(F)cc1-c1nnn(Cc2ccc(F)cn2)n1	0.1 µM (≈ 0.041 µg/mL)
O=S(=O)(NCCO)c1ccc(-c2nnn(Cc3ccc(OC(F)(F)F)cc3)n2)cc1	0.1 µM (≈ 0.0443 µg/mL)
COC(=O)CNS(=O)(=O)c1ccc(-c2nnn(Cc3ccc(F)cc3)n2)cc1	0.1 µM (≈ 0.0405 µg/mL)
O=S(=O)(NCCO)c1ccc(-c2nnn(CC3CCC(F)(F)CC3)n2)cc1	0.1 µM (≈ 0.0401 µg/mL)
COc1cc(-c2nnn(Cc3ccncc3)n2)ccc1S(=O)(=O)NCC(N)=O	0.1 µM (≈ 0.0403 µg/mL)
O=S(=O)(NCCO)c1ccc(-c2nnn(CC3CCCCC3)n2)cc1F	0.1 µM (≈ 0.0383 µg/mL)
O=S(=O)(NC(CO)CO)c1ccc(-c2nnn(Cc3ccncc3)n2)cc1	0.1 µM (≈ 0.039 µg/mL)
